Source: PubChem BioAssay (NCI)
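Test compounds were applied to cells in 96-well plates for 48 hours at 5 doses. TGI: total growth inhibition.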

Assays:
Assay in all cases: NCI anticancer screen, dose series, 48 h
CAKI-1 renal = tested on: CAKI-1 renal
EKVX NSCLC = tested on: EKVX NSCLC
HOP-62 NSCLC = tested on: HOP-62 NSCLC
HOP-92 NSCLC = tested on: HOP-92 NSCLC
KM12 colon = tested on: KM12 colon
SN12C renal = tested on: SN12C renal
T-47D breast = tested on: T-47D breast
UO-31 renal = tested on: UO-31 renal
NCI-H226 lung = tested on: NCI-H226 lung

Structure (SMILES)	TGI (CAKI-1 renal) [µM]	TGI (EKVX NSCLC) [µM]	TGI (HOP-62 NSCLC) [µM]	TGI (HOP-92 NSCLC) [µM]	TGI (KM12 colon) [µM]	TGI (SN12C renal) [µM]	TGI (T-47D breast) [µM]	TGI (UO-31 renal) [µM]	TGI (NCI-H226 lung) [µM]
CC(=O)OCC1OC(Oc2cc(C)c(O)cc2C/C=C(\C)CC/C=C(\C)CC(=O)CC(C)C)C(O)C(OC(C)=O)C1OC(C)=O (centres undefined)	> 50	16.3	40	> 50	29.4	40.3	27.3	32	
CC(=O)OC1COC(Nc2nc(NCc3ccccc3)n(C)c(=O)c2N=O)C(OC(C)=O)C1OC(C)=O (centres undefined)	> 10	> 10	> 10		> 10	> 10	> 10		> 10
CN(/N=C/c1ccnc2ccccc12)c1ccc(Cl)cc1[N+](=O)[O-]	> 100	> 100	> 100	> 100	> 100	> 100		> 100	> 100
S=C(c1c[nH]c2ccccc12)N1CCN(Cc2ccccc2)CC1	56.1	41.8	33		33.8	30.1		21.5	35.9
CC(=O)OC[C@@H](OC(C)=O)[C@H](OC(C)=O)[C@@H]1OC(C)(C)O[C@@H]1C1SCCCS1	> 100	> 100	> 100		> 100		> 100	> 100	
CN(c1ccccc1Cl)S(=O)(=O)c1ccc([N+](=O)[O-])cc1	> 100	> 100	> 100		> 100	> 100	> 100	> 100	> 100
CC(C)C(/C=C/c1ccc(Cl)c(Cl)c1)=N\NC(=O)N/N=C(/C=C/c1ccc(Cl)c(Cl)c1)C(C)C	> 100	> 100	> 100	> 100	> 100	> 100		> 100	> 100
CC[C@H]1C=CCC[C@@]2(C[C@@H]3CC[C@H]4[C@@H](C(=O)OCCCCCCCCCCCCCCCC(=O)N(CCCN)C[C@@H](O)CCN)[C@@]5(CCC[C@@H](C)O5)NC(=[N+]34)N2)O1	> 10	3.25	3.06	4.1	2.91	9.33		> 10	3.32
CC1=NN(c2nc(N)nc(CC#N)n2)C(C)(C)C1	> 100	> 100	> 100	> 100	> 100		> 100	> 100	> 100
O=c1[nH]nc(Cc2ccccc2)n1CCO	> 100	> 100		> 100	> 100	> 100	> 100	> 100	> 100
Cc1ccc(/C(O)=C/c2nc3ccccc3s/c2=N/CS(=O)(=O)c2ccc(C)cc2)cc1	> 10		> 10	> 10	> 10	> 10	> 10		
NNC(=O)c1nnn(CCc2ccccc2)c1C(=O)NN	> 100	> 100	> 100		> 100	> 100		> 100	
Nc1ccc(C(=O)c2cn(CCN3CCOCC3)c3ccccc23)c2ccccc12	> 100	90.8	> 100		> 100		72.8	> 100	
